Results from BindingDB's records for doi:10.7270/Q2TX3CSC (Vanderbilt Screening Center for GPCRs, Ion Channels and …, 2009).
Non-standard residues stand in square brackets, D forms with d. Residues, ends and D or L forms follow the SMILES beside them. ξ: configuration not given here. *: point of attachment. ξF = NC(Cc1ccccc1)C(=O)O; Cbz = O=C(OCc1ccccc1)*

Target: T1, Solute carrier family 12 member 5 (Homo sapiens, UniProt Q9H2X9)
T1 sequence (Q9H2X9 whole entry): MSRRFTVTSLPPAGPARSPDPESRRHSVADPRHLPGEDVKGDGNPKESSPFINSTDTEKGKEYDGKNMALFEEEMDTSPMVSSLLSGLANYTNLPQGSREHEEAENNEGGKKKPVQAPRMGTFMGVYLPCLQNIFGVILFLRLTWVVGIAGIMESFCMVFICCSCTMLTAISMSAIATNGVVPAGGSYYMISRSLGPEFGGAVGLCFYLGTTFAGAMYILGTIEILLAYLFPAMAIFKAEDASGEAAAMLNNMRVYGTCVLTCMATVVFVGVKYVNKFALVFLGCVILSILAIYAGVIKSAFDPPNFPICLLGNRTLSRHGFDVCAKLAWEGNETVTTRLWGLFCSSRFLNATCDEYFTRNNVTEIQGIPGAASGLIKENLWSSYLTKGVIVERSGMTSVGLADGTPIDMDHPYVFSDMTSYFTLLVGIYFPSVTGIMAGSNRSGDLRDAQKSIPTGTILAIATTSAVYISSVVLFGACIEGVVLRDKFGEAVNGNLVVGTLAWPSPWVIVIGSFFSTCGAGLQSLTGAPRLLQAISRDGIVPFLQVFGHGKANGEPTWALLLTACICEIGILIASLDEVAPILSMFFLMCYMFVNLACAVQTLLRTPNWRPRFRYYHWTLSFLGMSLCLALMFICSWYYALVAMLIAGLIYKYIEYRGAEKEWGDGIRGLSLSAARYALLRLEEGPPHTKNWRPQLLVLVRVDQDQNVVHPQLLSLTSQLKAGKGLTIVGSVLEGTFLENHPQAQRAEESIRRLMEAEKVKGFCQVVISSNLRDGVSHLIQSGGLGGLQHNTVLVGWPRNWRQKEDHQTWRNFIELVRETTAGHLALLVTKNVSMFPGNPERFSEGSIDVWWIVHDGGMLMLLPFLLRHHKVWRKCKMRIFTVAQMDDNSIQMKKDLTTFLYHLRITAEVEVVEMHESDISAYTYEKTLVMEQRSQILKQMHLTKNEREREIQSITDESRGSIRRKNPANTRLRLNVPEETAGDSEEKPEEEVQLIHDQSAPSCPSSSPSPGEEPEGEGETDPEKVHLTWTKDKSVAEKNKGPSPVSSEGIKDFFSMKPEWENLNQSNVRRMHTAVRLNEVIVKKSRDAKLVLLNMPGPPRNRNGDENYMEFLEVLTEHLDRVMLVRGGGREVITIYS
Test: concentration-response of KCC2 transport modulators – cell-based, HEK293 KCC2, FluoZin-2 fluorescence, dose response (AID 1736)
Conditions: not given

Row | Compound | EC50
1 | O=C(C1CC1)N1CCc2cc(S(=O)(=O)NC3CCN(Cc4ccccc4)CC3)ccc21 [1-[cyclopropyl(oxo)methyl]-N-[1-(phenylmethyl)-4-piperidinyl]-2,3-dihydroindole-5-sulfonamide] | 6.33 µM
2 | CCOC(=O)CNC(=O)C(Cc1ccccc1)NC(=O)OCc1ccccc1 (centres undefined) [2-[[1-oxo-3-phenyl-2-(phenylmethoxycarbonylamino)propyl]amino]acetic acid ethyl ester] (Cbz-[ξF]-Gly-OEt) | 3.01 µM
3 | O=[N+]([O-])c1cc(-n2c(O)c3c(c2O)CCCC3)ccc1NC1CCN(Cc2ccccc2)CC1 [2-[3-nitro-4-[[1-(phenylmethyl)-4-piperidinyl]amino]phenyl]-3a,4,5,6,7,7a-hexahydroisoindole-1,3-dione] | 221 µM
4 | O=C(CSc1ccccc1C(=O)NCc1ccccc1)NC12CC3CC(CC(C3)C1)C2 | 9.17 µM
5 | O=C1OC(c2ccc(O)cc2)(c2ccc(O)cc2)c2ccccc21 | 2.31 µM
6 | CNc1ccc2oc(C[C@H]3O[C@@]4(CC[C@H]3C)O[C@H]([C@H](C)C(=O)c3ccc[nH]3)[C@H](C)C[C@H]4C)nc2c1C(=O)O [MLS001056783] | 11.3 µM
7 | O=C(Cn1nc(-c2ccccc2)ccc1=O)NCc1ccc2c(c1)OCO2 [2-(6-keto-3-phenyl-pyridazin-1-yl)-N-piperonyl-acetamide] | 3.26 µM
8 | O=C(CSc1ccccc1C(=O)NCc1ccccc1)NC1CCCCCCC1 [2-[2-(cyclooctylamino)-2-oxidanylidene-ethyl]sulfanyl-N-(phenylmethyl)benzamide] | 51.6 µM
9 | O=C(CSc1nnnn1-c1ccc(Cl)cc1)N1CCc2ccccc2C1 [2-[1-(4-chlorophenyl)tetrazol-5-yl]sulfanyl-1-(3,4-dihydro-1H-isoquinolin-2-yl)ethanone] | 4.09 µM
10 | NC(=S)NN=C1C(=O)N(Cc2ccccc2)c2ccccc21 [1-[(Z)-[2-oxidanylidene-1-(phenylmethyl)indol-3-ylidene]amino]thiourea] | 0.295 µM
11 | O=C(CN1C(=O)NC2(CCCC2)C1=O)Nc1nc(-c2ccc(F)cc2)cs1 [2-(2,4-diketo-1,3-diazaspiro[4.4]nonan-3-yl)-N-[4-(4-fluorophenyl)thiazol-2-yl]acetamide] | 0.0699 µM
12 | Cc1ccccc1-c1nc(C[S+]([O-])CC(=O)NCc2ccccc2)c(C)o1 (centres undefined) [2-[[5-methyl-2-(2-methylphenyl)-1,3-oxazol-4-yl]methylsulfinyl]-N-(phenylmethyl)ethanamide] | 7.15 µM
13 | S=C(NCc1ccccc1Cl)Nc1ccccc1Cl [1-(2-chlorobenzyl)-3-(2-chlorophenyl)thiourea] | 204 µM
14 | O=C(CSc1nnc(C2CC2)n1Cc1ccccc1)c1cc2ccccc2o1 [1-(1-benzofuran-2-yl)-2-[(4-benzyl-5-cyclopropyl-1,2,4-triazol-3-yl)sulfanyl]ethanone] | 21.2 µM
15 | Cc1ccc(C)c(NC(=O)CSc2nnc([C@@H](N)Cc3ccccc3)o2)c1 [2-[5-((S)-1-Amino-2-phenyl-ethyl)-[1,3,4]oxadiazol-2-ylsulfanyl]-N-(2,5-dimethyl-phenyl)-acetamide] | 5.54 µM
16 | Cc1cccc(NC2=NN=C(c3ccccc3F)CS2)c1C | 27.9 µM
17 | Cc1cc(NC(=O)CSc2ccc(-c3ccc(F)cc3)nn2)no1 [2-[6-(4-fluorophenyl)pyridazin-3-yl]sulfanyl-N-(5-methyl-1,2-oxazol-3-yl)acetamide] | 0.171 µM

Second part, the compound after the results:

Row | EC50 | Compound
18 | 14.3 µM | O=C(OCc1ccccn1)c1ccc(COc2ccccc2Cl)o1 [5-(2-Chloro-phenoxymethyl)-furan-2-carboxylic acid pyridin-2-ylmethyl ester]
19 | 0.304 µM | Sc1nnc(Cc2cccc3ccccc23)o1 [5-(1-naphthalenylmethyl)-3H-1,3,4-oxadiazole-2-thione]
20 | 9.6 µM | O=C(NC(=S)Nc1nc(-c2cccc([N+](=O)[O-])c2)cs1)c1ccccc1Cl [2-chloranyl-N-[[4-(3-nitrophenyl)-1,3-thiazol-2-yl]carbamothioyl]benzamide]
21 | 0.725 µM | COc1ccc(-c2cc(CCCC(=O)NCCc3ccccc3)no2)cc1 [4-[5-(4-methoxyphenyl)-1,2-oxazol-3-yl]-N-(2-phenylethyl)butanamide]
22 | 4.9 µM | O=S(=O)(NC1CCCC1)c1cccc(S(=O)(=O)N2CCC(n3nnc4ccccc43)CC2)c1 [3-(4-Benzotriazol-1-yl-piperidine-1-sulfonyl)-N-cyclopentyl-benzenesulfonamide]
23 | 19.2 µM | O=C(NC1CCCC1)C(c1ccncc1)N(Cc1ccco1)C(=O)c1ccc(-c2ccccc2)[nH]1 (centres undefined) [MLS000718066]
24 | 11.7 µM | O=C(CN(c1ccc2c(c1)OCCO2)S(=O)(=O)c1ccccc1)N1CCN(Cc2ccccc2)CC1 [MLS000693333]
25 | 4060 µM | CCOc1ccc(C(CC(=O)O)NC(=O)C(Sc2ccccc2)c2ccccc2)cc1 (centres undefined) [3-(4-ethoxyphenyl)-3-[(2-phenyl-2-phenylsulfanyl-ethanoyl)amino]propanoic acid]
26 | 6.49 µM | O=C(NCc1nc(-c2ccccc2)cs1)c1ccccc1 [MLS000661971]
27 | 244 µM | CCOc1ccc2nc(Sc3cc(O)n(-c4cccc(OC)c4)c3O)sc2c1 [3-(6-Ethoxy-benzothiazol-2-ylsulfanyl)-1-(3-methoxy-phenyl)-pyrrolidine-2,5-dione]
28 | 2.85 µM | O=C(NCC1CCCN(C(=O)c2cccnc2)C1)c1ccc(-c2ccccc2)cc1 (centres undefined) [4-phenyl-N-[(1-pyridin-3-ylcarbonylpiperidin-3-yl)methyl]benzamide]
29 | 0.92 µM | CC1Cc2ccccc2N1C(=O)c1ccc(N2CCCCC2)c([N+](=O)[O-])c1 (centres undefined) [(2-methyl-2,3-dihydroindol-1-yl)-(3-nitro-4-piperidin-1-yl-phenyl)methanone]
30 | 2.8 µM | CNC(=O)/C(=C\C=C\c1ccccc1)NC(=O)c1ccc([N+](=O)[O-])cc1 [MLS000570424]
31 | 44.9 µM | COCCN1C(=O)/C(=C/c2ccc(OCc3ccc(C(=O)O)cc3)c(OC)c2)S/C1=N/c1ccccc1 [4-[(2-methoxy-4-{[3-(2-methoxyethyl)-4-oxo-2-(phenylimino)-1,3-thiazolidin-5-ylidene]methyl}phenoxy)methyl]benzoic acid]
32 | 0.449 µM | CC(C)(C)NC(=O)C(c1cccs1)N(CC1CCCO1)C(=O)c1ccc(-c2ccccc2)[nH]1 (centres undefined) [N-[2-(tert-butylamino)-2-oxo-1-thiophen-2-ylethyl]-N-(2-oxolanylmethyl)-5-phenyl-1H-pyrrole-2-carboxamide]
33 | 1.9 µM | COc1ccccc1-n1cnc2cc(NS(=O)(=O)c3ccccc3)ccc21 [MLS000032522]
34 | 0.772 µM | CC1Cc2ccccc2N1C(=O)c1ccc(N2CCCC2)c([N+](=O)[O-])c1 (centres undefined) [(2-methyl-2,3-dihydroindol-1-yl)-(3-nitro-4-pyrrolidin-1-yl-phenyl)methanone]
35 | 98.9 µM | Oc1ccccc1CN=Nc1nc2ccccc2o1 [(6E)-6-[(1,3-benzoxazol-2-ylhydrazo)methylidene]-1-cyclohexa-2,4-dienone]
36 | 1.14 µM | CC12CC3(C)CC(C)(C1)CC(C(=O)NC(=S)N1CCCC1)(C2)C3 [3,5,7-trimethyl-N-pyrrolidin-1-ylcarbothioyl-adamantane-1-carboxamide]
37 | 1.32 µM | N#Cc1nc(Cc2cccc3ccccc23)oc1N1CCOCC1 [5-(4-morpholinyl)-2-(1-naphthalenylmethyl)-4-oxazolecarbonitrile]
38 | 668 µM | O=C(NCc1cccnc1)c1ccc(COc2ccc(Cl)cc2Cl)o1 [5-[(2,4-dichlorophenoxy)methyl]-N-(3-pyridinylmethyl)-2-furancarboxamide]

Same assay, conditions: inactive by the depositor's call

Row | Compound | EC50
39 | O=C(COc1ccc2ccccc2c1)NN=Cc1ccccn1 [2-(2-naphthalenyloxy)-N-(2-pyridinylmethylideneamino)acetamide] | 330 µM
40 | Cc1ccc(Nc2nnc(SCC(=O)c3cc4ccccc4o3)s2)cc1C [1-(1-benzofuran-2-yl)-2-[[5-(3,4-dimethylanilino)-1,3,4-thiadiazol-2-yl]sulfanyl]ethanone] | 0.0853 µM
41 | CCCn1c(NC(=S)Nc2ccccc2)nc2ccccc21 [1-phenyl-3-(1-propyl-2-benzimidazolyl)thiourea] | 60400 µM

Results, then the compound that gave them:

Row | EC50 | Compound
42 | 11 µM | Cc1cc2ccccn2c1C(=O)c1nc(N2CCOCC2)ncc1Cl [(5-chloranyl-2-morpholin-4-yl-pyrimidin-4-yl)-(2-methylindolizin-3-yl)methanone]
43 | 33.7 µM | COC(=O)[C@@H](NC(=O)O[C@@H]1C(=O)c2cc(Br)ccc2O[C@H]1c1cccc(OC)c1)C(C)C [(2S)-2-[[(2S,3S)-6-bromo-4-keto-2-(3-methoxyphenyl)chroman-3-yl]oxycarbonylamino]-3-methyl-butyric acid methyl ester]
44 | 45.8 µM | CC(C)c1ccc(C=NNC(=O)c2ccccc2Cl)cc1 [2-chloranyl-N-[(4-propan-2-ylphenyl)methylideneamino]benzamide]
